In article PMC8576102, “Structure–Activity Relationship of Novel Second-Generation Synthetic Cathinones: Mechanism of Action, Locomotion, Reward, and Immediate-Early Genes” (Frontiers in Pharmacology, 2021):

Assays:
hDAT = target: T1, hDAT (Homo sapiens, UniProt Q01959); assay: Uptake inhibition assay, [3H]MPP+ uptake in transfected HEK293 cells; assay type: cell-based; settings: for hDAT/hSERT ratio: 1/DAT IC50: 1/SERT IC50
T1 construct: YFP (yellow-fluorescent protein); expressed in transfected cells
T1 sequence (Q01959 whole entry): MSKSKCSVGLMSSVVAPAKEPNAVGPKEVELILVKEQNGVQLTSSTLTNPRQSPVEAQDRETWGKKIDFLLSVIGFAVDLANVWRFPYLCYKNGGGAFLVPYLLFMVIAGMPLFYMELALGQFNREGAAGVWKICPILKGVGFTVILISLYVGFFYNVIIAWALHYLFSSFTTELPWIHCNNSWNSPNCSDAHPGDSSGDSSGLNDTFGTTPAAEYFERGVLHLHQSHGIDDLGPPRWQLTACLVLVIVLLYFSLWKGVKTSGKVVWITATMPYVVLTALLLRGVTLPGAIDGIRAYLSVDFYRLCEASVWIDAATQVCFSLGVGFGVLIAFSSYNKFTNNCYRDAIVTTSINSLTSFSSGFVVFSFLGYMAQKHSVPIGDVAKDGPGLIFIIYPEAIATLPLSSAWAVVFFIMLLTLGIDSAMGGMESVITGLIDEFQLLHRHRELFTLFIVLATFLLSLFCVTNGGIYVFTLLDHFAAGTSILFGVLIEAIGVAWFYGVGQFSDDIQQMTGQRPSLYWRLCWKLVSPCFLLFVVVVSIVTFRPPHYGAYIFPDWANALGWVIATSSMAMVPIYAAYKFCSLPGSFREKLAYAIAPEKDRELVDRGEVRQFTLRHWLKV
Protocol: (§1) Human embryonic kidney (HEK293) cells stably expressing the yellow-fluorescent protein (YFP)-tagged version of the human isoforms of SERT (abbreviated as SERT) and DAT (abbreviated as DAT) were used for the uptake inhibition and release assays. The generation and maintenance of stable, monoclonal cell lines expressing these transporters was conducted as described by ([Mayer F. P. et al., 2016]; [Mayer et al., 2016 FP.]). HEK293 cells were maintained in DMEM supplemented with heat-inactivated 10% FBS, 100 µg/100 ml streptomycin, 100 U/ml penicillin, and Geneticin (G418; 50 μg/ml) and cultured in a humidified atmosphere (5% CO2, 37°C). The cells were seeded at a density of 0.36 million cells/well onto 96-well plates previously coated (24 h) with poly-D-lysine (PDL).
(§2) The medium was removed and immediately replaced with 200 µL/well of Krebs-HEPES buffer (KHB; 10 mM HEPES, 120 mM NaCl, 3 mM KCl, 2 mM CaCl2·2H2O, 2 mM MgCl2·6H2O, 20 mM D-glucose; pH 7.3). The cells were pre-incubated with different concentrations of the drug in KHB at a final volume of 50 µL/well for 5 min (DAT, SERT). Immediately after, the pre-incubation solution was removed and the cells were incubated with the tritiated substrates, 0.02 µM [^3H]MPP^+ for the DAT (3 min) and 0.1 µM [^3H]5-HT for the SERT (1 min), along with different concentrations of the drug in KHB. Finally, the [^3H]substrate was removed and the cells were washed with ice-cold KHB followed by the addition of sodium dodecyl sulfate (SDS) 1%. The lysate was then added to the scintillation fluid, and the radioactivity was quantified with a beta-scintillation counter (Perkin Elmer, Waltham, MA, United States).
(§3) The uptake in the absence of the drug compound was normalized to 100%, being the percentage of the uptake in the presence of different concentrations of the drug expressed as a percentage thereof. 3–4 independent experiments were performed in duplicate.
(§4) Data were expressed as mean ± SEM. Competition curves were plotted and fitted by non-linear regression, and data were best fitted to a sigmoidal dose-response curve to obtain an IC50 value. 1/DAT IC50: 1/SERT IC50 was used to calculate transporter ratios. Data from batch release assays were statistically analyzed with a mixed-effects model, employing Šidák’s correction for multiple comparisons. One-way/two-way ANOVA or two-way ANOVA of repeated measures, followed by Tukey’s or Dunnett’s post hoc test, was also used when appropriate. The α error probability was set at 0.05 (p < 0.05). The size group for each experiment and statistical results are shown in the corresponding legend of figures. Statistical calculations were performed using GraphPad Prism (GraphPad Software, San Diego, CA, United States).

hSERT = target: T2, hSERT (Homo sapiens, UniProt P31645); assay: Uptake inhibition assay, [3H]5-HT uptake in transfected HEK293 cells; assay type: cell-based
T2 construct: YFP (yellow-fluorescent protein); expressed in transfected cells
T2 sequence (P31645 whole entry): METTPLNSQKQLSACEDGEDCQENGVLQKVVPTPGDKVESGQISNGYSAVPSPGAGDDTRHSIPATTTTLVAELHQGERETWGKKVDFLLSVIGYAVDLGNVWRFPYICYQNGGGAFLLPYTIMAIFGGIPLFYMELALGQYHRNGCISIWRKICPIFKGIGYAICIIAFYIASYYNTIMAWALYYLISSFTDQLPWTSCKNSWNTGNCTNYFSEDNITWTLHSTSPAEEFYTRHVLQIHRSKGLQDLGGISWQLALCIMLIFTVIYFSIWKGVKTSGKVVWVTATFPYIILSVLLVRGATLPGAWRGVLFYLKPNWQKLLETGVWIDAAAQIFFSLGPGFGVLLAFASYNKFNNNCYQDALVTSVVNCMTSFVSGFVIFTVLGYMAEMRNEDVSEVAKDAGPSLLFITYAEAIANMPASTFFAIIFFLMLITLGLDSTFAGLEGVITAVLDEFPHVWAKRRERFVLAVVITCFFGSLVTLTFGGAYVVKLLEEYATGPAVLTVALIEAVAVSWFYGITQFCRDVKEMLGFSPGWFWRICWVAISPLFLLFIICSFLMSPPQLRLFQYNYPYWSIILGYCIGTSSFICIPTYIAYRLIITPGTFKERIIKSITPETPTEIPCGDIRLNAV
Protocol: as §1, §2, §3, §4

SERT = tested on: T3, SERT; assay: Batch release assay, [3H]5-HT release from SERT-expressing HEK293 cells; assay type: cell-based, human; settings: compound close to its IC50; KHB vs KHB + monensin 10 µM
T3 construct: YFP (yellow-fluorescent protein); expressed in transfected cells
Protocol: as §1
HEK293 cells expressing the transporter of interest were preloaded with the tritiated substrate 0.08 μM [^3H]5-HT (SERT) or 0.1 μM [^3H]MPP^+ (DAT) in KHB (50 μL/well) for 20 min (5% CO2, 37°C). Subsequently, the cells were washed three times using KHB (200 μL/well) at room temperature. Afterward, a pre-incubation step of 10 min in KHB or in KHB + monensin (Mon) 10 μM was done. […] To determine the specificity of drug-induced reverse transport, selective transporter inhibitors 0.05 μM paroxetine (SERT) and 0.5 μM of GBR12909 (DAT) and effective releasers 10 μM p-chloroamphetamine (PCA; SERT) and 10 μM d-amphetamine (DAT) were used (Supplementary Figure S1). The resulting supernatant was collected and transferred to a new well every 2 min (four times for KHB/Mon and five times for each tested compound). Three independent experiments were performed in duplicate. Liquid scintillation cocktail was added to the wells with remaining cells (200 μL) and with the transferred supernatant (100 μL) and to the wells used for total uptake and activity measurements (200 μL). Total radioactivity present in the supernatant and in the remaining cells was set as 100%, and the amount of [^3H] substrate present in the supernatant was expressed as percentage of the total.
as §4

Swiss CD-1 mice = assay: Horizontal locomotor activity (HLA); assay type: in vivo; settings: for HLA after 30 mg/kg compared to the medium dose (10 mg/kg): 30 mg/kg vs 10 mg/kg i.p.
Arc mRNA [1] = assay: Arc mRNA expression (qPCR) in ventral and dorsal striatum; assay type: in vivo, mice; settings: 10 mg/kg i.p., 120 min after administration, vs saline
Protocol: (§5) Mice were injected with an acute dose of 10 mg/kg i.p. of the corresponding synthetic cathinone or saline solution. The dose was chosen according to the behavioral results obtained since it caused significant response in both CPP and HLA tests in all compounds tested. 30 min or 2 h post-administration, mice were sacrificed by cervical dislocation and the VS, DS, and mPFC were dissected out ([Paxinos and Franklin, 2004]) using a mouse brain acrylic matrix (Agnthos, Sweden) and stored at -80°C until use. Total RNA was isolated following a standard TRIsure reagent–chloroform extraction protocol ([Duart-Castells et al., 2019]).
(§6) Reverse transcription polymerase chain reaction (RT-PCR) was carried out to obtain complementary DNA (cDNA) by using the High Capacity cDNA Reverse Transcription Kit (Applied Biosystems) and the Veriti thermal cycler (Applied Biosystems, Foster, CA, United States). Synthesis of cDNA was obtained by mixing 1,000 ng of total RNA with the corresponding volumes of each kit reagent to a final volume of 20 μL. Quantitative real-time polymerase chain reaction (qPCR) was performed by using the StepOnePlus^TM Real-Time PCR System and TaqMan PCR Master Mix (Applied Biosystems, Foster, CA, United States). 25 ng of cDNA was loaded in a final volume of 20 μL containing sequence-specific primers and TaqMan probes (Mm01204954_g1 for Arc, Mm04230607_s1 for bdnf, Mm00487425_m1 for c-fos, and Mm00607939_s1 for β-actin). Each sample was tested in duplicate. qPCR conditions were 2 min at 50°C, 10 min at 95°C, 40 cycles/15 s at 95°C, and 60 s at 60°C. Changes in gene expression were defined by using the comparative Ct method for each experimental sample. Gene expression was normalized by using the mean of Ct values of the housekeeping gene β-actin.

c-fos mRNA = c-fos mRNA expression (qPCR) in ventral and dorsal striatum; assay type: in vivo, mice; settings: 10 mg/kg i.p., vs saline; for c-fos expression in the DS, 120 min: 120 min post injection; for c-fos expression in the DS, 30 min: 30 min after injection; for c-fos expression in the VS, 120 min: 120 min after administration
Protocol: as §5, §6

Arc mRNA [2] = tested on: Arc mRNA; design: method as in Giannotti et al., 2017; settings: 30 min and 2 h after administration; ref Giannotti et al., 2017; cited from earlier work

Row | SMILES | IC50 (hDAT) [nM] | hDAT/hSERT ratio (hDAT) | IC50 (hSERT) [µM] | [3H]5-HT release at the SERT (in words) (SERT) | HLA after 30 mg/kg compared to the medium dose (10 mg/kg) (Swiss CD-1 mice) | Arc gene expression in the DS, 120 min (Arc mRNA [1]) | Arc gene expression in the VS, 120 min (Arc mRNA [1]) | c-fos expression in the DS, 120 min (c-fos mRNA) | Distance traveled (Swiss CD-1 mice; 10 mg/kg, independent experiment, N = 15) | Arc mRNA levels in the striatum after acute injection (Arc mRNA [2]) | HLA vs saline at the lowest dose (Swiss CD-1 mice; 3 mg/kg i.p., 60 min) | Persistence of the increase in locomotor activity (Swiss CD-1 mice; 10 mg/kg i.p.) | c-fos expression in the DS, 30 min (c-fos mRNA) | c-fos expression in the VS, 120 min (c-fos mRNA)
1 | CCCC(NC)C(=O)c1ccc2c(c1)OCO2 (stereo not drawn) [Pentylone, 3’,4’-methylendioxy-α-methylaminovalerophenone] | 510 ± 70 | 45 | 23.2 ± 2.68 | milder release | significant increase | significant increase | significant increase | increased | – | – | – | – | – | –
2 | COC(=O)[C@H]1[C@@H](OC(=O)c2ccccc2)C[C@@H]2CC[C@H]1N2C [Cocaine, reference compound] | – | – | – | – | – | – | – | – | 16,018 ± 1,118 cm | – | – | – | – | –
3 | CCCC(C(=O)c1ccc2c(c1)OCO2)N1CCCC1 (centres unmarked) [MDPV, 3,4-methylenedioxypyrovalerone] | – | – | – | – | – | – | – | – | – | increased | – | – | – | –
4 | CCCC(NCC)C(=O)c1ccccc1 (stereo not drawn) [N-Ethyl-pentedrone, α-ethylaminovalerophenone] | 100 ± 30 | >1,000 | 127 ± 5.14 | most potent | ceiling effect | significant increase | significant increase | increased | – | – | increase | more than 1 hour | significant overexpression | significant increase
5 | CCCC(NC)C(=O)c1ccc(C)cc1 (stereo not drawn) [4-MPD, 4’-methyl-α-methylaminovalerophenone] | 290 ± 50 | 108 | 30.9 ± 6.23 | most potent | significant increase | – | – | – | – | – | – | – | – | –
6 | CCCC(C(=O)c1ccccc1)N1CCCC1 (stereo not drawn) [α-PVP] | – | – | – | – | – | – | – | – | – | did not alter | – | – | – | –
7 | CCCC(NCC)C(=O)c1ccc(C)cc1 (stereo not drawn) [4-MeAP, 4’-methyl-α-ethylaminovalerophenone] | 140 ± 20 | 93 | 13.3 ± 0.89 | most potent | significant increase | significant increase | significant increase | increased | – | – | – | – | significant overexpression | –
8 | CCCC(NC)C(=O)c1ccccc1 (stereo not drawn) [Pentedrone, α-methylaminovalerophenone] | 210 ± 20 | 666 | 138 ± 13.4 | milder release | ceiling effect | – | – | increased | – | – | – | – | – | significant increase
